# Laboratory results: a melting point compilation (Tetko et al.)
row,SMILES,melting point [°C]
1,NNC(=O)CNc1ccc(F)cc1,80 to 83
2,c1ccc(-n2cccn2)nc1,37 to 39
3,Nc1c(F)cccc1Oc1ccccc1,51 to 53
4,CC(=Cc1ccc(Br)o1)[N+](=O)[O-],89 to 91
5,OC1(Cc2cccc(F)c2)CCNC1 (stereo not drawn),59 to 61
6,O=C(O)C=CC(=O)NCc1ccncc1,139 to 141
7,O=C(c1ccc(Br)c([N+](=O)[O-])c1)N1CCOCC1,114 to 116
8,CN1CCN(C(N)=S)CC1,179 to 181
9,CCCNC(=O)c1cccc(O)c1,68 to 70
10,COC(=O)CC1c2ccccc2CCN1S(C)(=O)=O (stereo not drawn),103 to 105
11,Sc1nnc(NC2CCCCC2)s1,144 to 146
12,O=Cc1ccccc1S(=O)(=O)N1CCOCC1,97 to 99
13,COc1ccc(S(=O)(=O)NCCC(=O)O)cc1,125 to 127
14,O=C(O)c1cccc(Oc2ccc(Cl)cc2)n1,115 to 117
15,COc1ccccc1NC1=NCC(C)S1 (stereo not drawn),92 to 97
16,O=C(O)CN1Cc2ccccc2C1=O,217 to 219
17,O=C(O)Cc1ccc2c(c1)CCO2,102 to 104
18,O=C(O)c1cncnc1-c1ccccc1,141 to 143
19,NC(=O)NCc1ccc(N)cc1,159 to 161
20,CCOC(=O)C(NS(C)(=O)=O)C(=O)OCC,72 to 74
21,NS(=O)(=O)c1ccc(S(=O)(=O)Cl)c(F)c1,111 to 113
22,CC(=CC(=O)O)c1ccc(C(F)(F)F)cc1,122 to 124
23,Nc1ccc(SC(F)(F)F)c(F)c1,33 to 35
24,COC(=O)c1c(C)n(C2CC2)c2ccc(O)cc12,193 to 195
25,O=C(CCl)NC(=O)NC1CCCCC1,102 to 105
26,COc1ccccc1OCCBr,39 to 41

row,SMILES,melting point [°C]
1,CC(Cl)C(=O)Nc1ncccn1 (stereo not drawn),148 to 150
2,NC(=O)Cn1ncc(Cl)c(Cl)c1=O,245 to 247
3,ClCc1csc(-c2ccc3c(c2)OCO3)n1,106 to 108
4,Nc1nnc(CC2CCCC2)o1,174 to 176
5,NC(=O)c1ccccc1Oc1cccc(N)c1,129 to 131
6,CC(C)(C)OC(=O)NC1CCC(=O)CC1,113 to 115
7,CCS(=O)(=O)c1cccc(C(=O)O)c1,160 to 162
8,[N-]=[N+]=Nc1cccc2ncccc12,61 to 63
9,O=C(CCl)NCC(=O)Nc1ccc(F)c(F)c1F,160 to 162
10,CCCCS(=O)(=O)Nc1ccc(S(=O)(=O)Cl)cc1,123 to 125
11,C=CC(=O)NCC1CCCCC1,47 to 49
12,CN(C)C(Cc1ccccc1)C(=O)O (stereo not drawn),225 to 227
13,O=S(=O)(F)c1ccc(Br)cn1,92 to 94
14,O=C(O)Cn1ccc(=O)c2ccccc21,274 to 276
15,O=C(O)C1CCN(C(=O)c2ccco2)CC1,127 to 129
16,O=C(O)CNC(=O)c1ccc(S(=O)(=O)Cl)cc1,130 to 132
17,O=Cc1cnc2cnccn12,178 to 180
18,O=C(O)c1ccc(CN2C(=O)C=CC2=O)cc1,163 to 165
19,Nc1sc2c(c1C(=O)c1ccc(C(F)(F)F)cc1)CCC2,200 to 202
20,CC(NC1=NS(=O)(=O)c2ccccc21)C(=O)O (stereo not drawn),220 to 222
21,NC(=S)c1cccc(C(F)(F)F)c1,66 to 68
22,O=[N+]([O-])c1c(CCl)nc2ccccn12,152 to 154
23,NC(C(=O)O)(c1cccc(F)c1)C(F)(F)F (stereo not drawn),131 to 133
24,ClCc1coc(-c2cccs2)n1,45 to 57
25,O=C(CCl)c1ccc(I)cc1,127 to 129
26,CC(C)(C)OC(=O)NCC1CCCCS1 (stereo not drawn),70 to 72

row,SMILES,melting point [°C]
1,CS(=O)(=O)c1ccc(-c2nc(CCl)cs2)cc1,151 to 153
2,CC(C(=O)O)c1ccc(N(C)C)cc1 (stereo not drawn),128 to 130
3,O=C(O)CCSc1ccc2c(c1)OCCCO2,63 to 65
4,O=C(O)Cn1cccnc1=O,211 to 213
5,O=C(O)c1cc(NS(=O)(=O)c2ccc(Cl)c([N+](=O)[O-])c2)ccc1O,239 to 241
6,O=C(O)CNC1CCS(=O)(=O)C1 (stereo not drawn),241 to 243
7,NC(=O)Cn1cnc(-c2ccccc2)c1N,209 to 211
8,NS(=O)(=O)N1CCOc2ccccc21,135 to 137
9,Nc1ccc(CC(=O)N2CCOCC2)cc1,164 to 166
10,O=C(O)CC(c1ccccc1)N1CCOC1=O (stereo not drawn),123 to 125
11,CCOc1ccc(S(N)(=O)=O)c2ccccc12,168 to 170
12,O=C(O)CNS(=O)(=O)c1ccccc1F,170 to 172
13,NS(=O)(=O)c1ccc(CCNS(=O)(=O)c2cccc(C(=O)O)c2)cc1,226 to 228
14,Nc1ccc(-n2cnc3ccccc32)cc1,104 to 106
15,CCOC(=O)N1CCC(NC(N)=S)CC1,160 to 162
16,O=C(O)CNS(=O)(=O)C=Cc1ccccc1,80 to 82
17,O=C(O)c1cncn1-c1ccccc1,208 to 215
18,CN(C)c1ccc(NC(=O)NN)cc1,140 to 142
19,COc1ccc(C(=O)O)nn1,139 to 141
20,O=C(O)c1ccc(N2CCNC2=O)cc1,313 to 315
21,O=C(O)CC(Cc1ccccc1)c1ccccc1 (stereo not drawn),90 to 92
22,CCCC(NC(N)=O)C(=O)O (stereo not drawn),170 to 172
23,Nc1nc(CCl)nc2oc(-c3ccccc3)c(-c3ccccc3)c12,201 to 203
24,CC(NC(=O)c1ccc(Br)o1)C(=O)O (stereo not drawn),169 to 171
25,O=C(O)C(Cc1ccccc1)Cc1ccc(Cl)cc1 (stereo not drawn),79 to 81

# Further lines, results first:
row,melting point [°C],SMILES
1,88 to 90,O=S(=O)(Cl)c1ccc2nc(Cl)c(Cl)nc2c1
2,215 to 217,Cc1ccc(NC(N)=O)c(C)c1
3,164 to 166,Cc1[nH]c(C2CCCN2)nc1-c1ccccc1 (stereo not drawn)
4,87 to 89,Fc1ccc(NCc2cccnc2)c(F)c1
5,80 to 82,COc1cccc2c1OCCC2=O
6,197 to 199,O=C(O)CCc1ccc(-c2ccccc2)[nH]1
7,121 to 123,Cc1nn(C(C)(C)C)c2nc(C(C)C)cc(C(=O)O)c12
8,344 to 346,O=C(O)c1ccc2c(=O)[nH]c(CCl)nc2c1
9,255 to 257,Cc1cc(C)c(C#N)c(=S)[nH]1
10,240 to 242,Cc1ccnc2nc(C(=O)O)nn12
11,199 to 201,Cc1nc(O)ccc1Br
12,107 to 109,ON=C1CCCOc2ccc(Br)cc21
13,197 to 199,CCOC(=O)c1sc(N)c(C(N)=O)c1C
14,139 to 141,N#Cc1ccc(Nc2ccc(Cl)cc2)cc1
15,179 to 181,Cc1ccc(C)c(-c2cnnc(N)n2)c1
16,95 to 97,COc1cc2ncn(CCC(=O)O)c(=O)c2cc1OC
17,259 to 261,COc1ccc(C(=O)Nc2ccc(C(=O)O)cc2)cc1OC
18,186 to 188,CCn1c(CCC(=O)O)nc2cc(S(=O)(=O)N(C)C)ccc21
19,208 to 210,N#Cc1c(N2CCCC2)n[nH]c1N
20,211 to 213,Cc1ccc(-c2nnc(N)[nH]2)c(C)c1
21,178 to 180,Nc1cc(C(=O)O)c2ccccc2c1
22,224 to 226,Cc1nc(-c2ncccn2)sc1C(=O)O

row,melting point [°C],SMILES
1,124 to 126,Cc1cc(C)n(-c2ccc(N)cc2F)n1
2,106 to 108,N#Cc1cc(Cl)ccc1CS(=O)(=O)Cl
3,108 to 110,O=C(Cc1ccc(Cl)cc1Cl)c1ccc(F)cc1
4,170 to 172,Cc1cc(C(=O)O)c(C)n1Cc1ccco1
5,199 to 201,O=C1Nc2cccc(I)c2C1=O
6,65 to 67,CN(C)S(=O)(=O)c1cccc(CO)c1
7,279 to 281,N#Cc1c(S)nc2c(c1-c1ccco1)CCC2
8,75 to 77,COc1cc(C=O)ccc1OCC#N
9,319 to 321,CNC(=O)c1cnc(C)[nH]c1=O
10,79 to 81,Cc1nc(-c2ccccc2Br)sc1C(C)O (stereo not drawn)
11,65 to 67,COC(=O)c1cc(Cl)cc(Cl)c1N
12,173 to 175,Cc1ccc(S(=O)(=O)N(C)C)cc1C(=O)O
13,163 to 167,CC(Cl)C(=O)Nc1cccc(S(=O)(=O)N(C)C)c1 (stereo not drawn)
14,112 to 114,N#CCc1c[nH]c2cc(Br)ccc12
15,105 to 107,CCc1ccc2nc(N)sc2c1
16,105 to 118,Cc1noc(C)c1S(=O)(=O)NCCC(=O)O
17,41 to 43,COc1cc(CC#N)ccc1SC(F)F
18,105 to 107,COc1ccc(N)cc1S(=O)(=O)Nc1ccc(Cl)cc1
19,177 to 179,COc1ccc(Cc2nnc(S)n2N)cc1OC
20,233 to 235,Cc1sc(C(=O)O)cc1CS(C)(=O)=O
21,185 to 187,Cc1nc(C(C)(C)O)n[nH]1
22,73 to 75,O=C1CCOc2ccc(Br)cc21

row,melting point [°C],SMILES
1,201 to 203,CCCCn1c(N)c(NC)c(=O)[nH]c1=O
2,142 to 144,CCOC(=O)/C(C#N)=C\Nc1ccccc1F
3,154 to 156,CC(C)N(C)S(=O)(=O)c1ccc(Cl)c(C(=O)O)c1
4,76 to 80,CCCCN(C)S(=O)(=O)c1ccc(N)cc1
5,91 to 93,OC1CCOc2ccc(Br)cc21 (stereo not drawn)
6,159 to 161,CC(=O)Nc1cc(C)nn1CCC#N
7,221 to 223,FC(F)(F)c1ccc2sc(S)nc2c1
8,171 to 173,O=C(O)c1cccc(OCc2ccc(Cl)cc2)c1
9,151 to 153,CCOC(=O)c1c(N)sc(C(=O)NC)c1C
10,143 to 145,COc1ccc(S(N)(=O)=O)c([N+](=O)[O-])c1
11,87 to 89,CN(C)CCOc1cc(N)ccn1
12,44 to 46,Clc1cccc(-c2noc(Cl)n2)c1
13,159 to 161,Nc1cc(-c2ccc(I)cc2)no1
14,56 to 58,CC1(O)CCc2ccccc21 (stereo not drawn)
15,276 to 278,Nc1cc(C(=O)O)c(Br)cn1
16,108 to 110,CCc1ccc(-c2csc(NC(=O)C(C)Cl)n2)cc1 (stereo not drawn)
17,198 to 200,O=C(O)CSCc1nc2sc3c(c2c(=O)[nH]1)CCC3
18,52 to 54,CCOC(=O)COc1ccc(C(C)=O)cc1
19,231 to 233,COc1ccc2[nH]c(C(=O)O)cc2c1OC(F)F
20,92 to 94,CC1CC1c1cc(N)n(-c2ccccc2)n1 (stereo not drawn)
21,142 to 144,Nc1cc(Br)ccc1S(N)(=O)=O
22,74 to 76,Cc1ccc(C#N)c(N2CCCC2)n1
